# According to patent publication US7531195B2, “Schisandrin B preparation” (priority 2005, dated 2009):
# Columns and labels:
# Hsp25 = Hsp25 expression in H9c2 cells (Western blot); assay type: cell-based, rat; settings: 6.25 μM
# Method: (§1) H9c2 cells, a permanent cell line derived from cardiac myoblasts of rat embryo, have early been characterized as a suitable model of myocardial cells [Hescheler et al. 1991]. H9c2 cells were cultured as monolayers in Dulbecco's modified Eagle's medium (GIBCO BRL) supplemented with 10% (v/v) fetal bovine serum. The medium contained glucose (4.5 g/L) and glutamine (4.5 mM), supplemented with NaHCO3 (17 mM), penicillin (100 IU/ml), and streptomycin (100 μg/ml). Cells were grown under an atmosphere of 5% CO2 in air at 37° C. The medium was replaced by fresh medium every 2 or 3 days. A stock of cells was grown in a 75 cm culture flask and split before confluence at a subcultivation ratio of 1:10. Cells used for experiments were seeded at a density of 3.75×10^4 cells/well on a 12-well culture plate, and the cells were grown for 24 h to about 80% confluence prior to drug treatment.
# (§2) Cultured H9c2 cells were treated with (−) Schisandrin B, (+) Schisandrin B or (±) Schisandrin B (dissolved in DMSO) at 6.25 μM (0.2% DMSO final concentration) for increasing periods of time. Control cells were given the vehicle (i.e. DMSO) only.
# (§3) Immediately following the drug treatment, the cells were washed twice with 0.5 ml cold PBS and treated with 100 μl lysis buffer containing 20 mM Tris HCl, 3 mM EGTA, 1% Triton X-100, 10% glycerol and 2 mM dithiothreitol, pH 7.5, with freshly added protease inhibitors (1 mM phenylmethylsulfonyl fluoride, 0.1 mM benzamide, 5 μg/ml leupeptin, 5 μg aproptinin and 5 μg/ml pepstain A). The mixture was incubated at 4° C. for 15 min with constant shaking. Then the cells were scraped off from the plate, and the extract was transferred to a microcentrifuge tube for centrifugation at 2,400 g for 3 min at 4° C. The resultant supernatant was used for Hsp analysis. Hsp25 and Hsp70 levels was estimated by Western blot analysis using specific antibodies (anti-Hsp25, catalog #SPA-801; anti-Hsp70, catalog #SPA-812) from StressGen (Vancouver, BC, Canada) following SDS-PAGE analysis cell lysates, using a separating gel of 10% acrylamide as described in Ip et. al. [2001]. Hsp25/27 and Hsp70 (human recombinant proteins from StressGen) and actin (bovine muscle from Sigma) were used as markers for reference. […] All immuno-blots were analyzed by densitometry, and the amounts (arbitrary units) of Hsp were normalized with reference to actin levels (arbitrary units) in the sample.
# H9c2 cells [1] = assay: Cellular GSH level in H9c2 cells, time course, with or without xanthine/xanthine oxidase (X/XO) challenge; assay type: cell-based, rat; settings: 6.25 μM
# Method: as §1
# (§4) Cultured H9c2 cells were treated with (−) Schisandrin B, (+) Schisandrin B or (±) Schisandrin B (dissolved in DMSO) at 6.25 μM (0.2% DMSO final concentration) for increasing periods of time. Control cells were given the vehicle (i.e. DMSO) only. Immediately following the drug or vehicle pretreatment, the cells were challenged with a mixture of xanthine (X) (0.1 mM) and xanthine oxidase (XO) (0.4 U/ml) for 4 h. The control cells were treated with the medium only. After the X/XO challenge, the medium was taken for the measurement of LDH activity, a biochemical index of cellular injury.
# (§5) The cells were washed twice with 0.5 ml cold phosphate-buffered saline (PBS), An aliquot (200 μl) of 3% sulfonsalicyclic acid was then added, and the mixture was incubate at 4° C. for 10 min. After centrifuging at 300 g for 15 min at 4° C., the supernatant was used for GSH measurement by an enzymatic method of Griffith (1980).
# Hsp70 = Hsp70 expression in H9c2 cells (Western blot); assay type: cell-based, rat; settings: 6.25 μM
# Method: as §1, §2, §3
# H9c2 cells [2] = assay: Cellular GSH level in H9c2 cells with or without menadione challenge; assay type: cell-based, rat
# Method: as §1
# (§6) Cultured H9c2 cells were treated with (−) Schisandrin B, (+) Schisandrin B or (±) Schisandrin B (dissolved in DMSO) at 6.25 μM (0.2% DMSO final concentration) for 16 h. Control cells were given the vehicle (i.e. DMSO) only. Immediately following the drug or vehicle pretreatment, the cells were challenged with menadione (dissolved in ethanol) at 12.5 μM (0.2% ethanol final concentration) for 4 h. The control cells were treated with the medium containing 0.2% ethanol only. After the menadione challenge, the medium was taken for the measurement of LDH activity, an biochemical index of cell injury.
# as §5
# H9c2 cells [3] = assay: Xanthine/xanthine oxidase-induced cytotoxicity (LDH leakage) in H9c2 cells; assay type: cell-based, rat; settings: X/XO challenge, 6.25 μM
# Method: as §1, §4
# H9c2 cells [4] = assay: Menadione-induced toxicity (LDH) in H9c2 cells; assay type: cell-based, rat
# Method: as §1, §6
# [5] = test system: mitochondria of brain, heart, liver and skeletal muscle; assay: Mitochondrial antioxidant status in various tissues of young female rats; assay type: in vivo, rat; settings: (−) Sch B, α-LA, α-Toc at daily 10, 5 and 70 mg/kg respectively, 15 days
# Method: The dosages were determined with reference to the equivalent amount of crude herb prescribed for human or the daily recommended intake in health supplements. The control animals received olive oil only. Twenty-four hours after the last dose, the pentobarbital-anesthetized animals were sacrificed by cardiac excision, and brain. heart, liver and skeletal muscle tissues were obtained. Tissue samples (brain, heart, liver, and skeletal muscle) were rinsed with ice-cold isotonic buffer (50 mM Tris, 0.32 M sucrose, 1 mM Na2EDTA, 0.2 mg/ml soybean trypsin inhibitor, 0.2 mg/ml bacitracine, 0.16 mg/ml benzamidine). Tissue homogenates were prepared by homogenizing 0.8 g of myocardial tissue in 8 ml ice-cold isotonic buffer and the homogenates were used for the preparation of mitochondrial fractions by differential centrifugation, as described in Chiu and Ko (2004). The mitochondrial pellets were resuspended in 1.5 ml of isotonic buffer containing 150 μl of 2 mg/ml soybean trypsin inhibitor and constituted the mitochondrial fractions. […] (St. Louis, Mo., USA). […] Aliquots (400 μl) of mitochondrial fractions were mixed with 933 μl Triton X-100 solution (0.3%, v/v, in isotonic buffer) and sonicated for 2 min on ice. The mixtures were then subjected to measurements of mitochondrial glutathione reductase (GRD), Se-glutathione peroxidase (GPX) and glutathione S-transferases (GST) activities by spectrophotometric methods, as described in Chiu et al. (2002).
# [6] = test system: mitochondria of brain, heart, liver and skeletal muscle; assay: Mitochondrial ATP generation capacity in various tissues of young female rats; assay type: in vivo, rat; settings: 15 days; for ATP generation: (−) Sch B, α-LA, α-Toc at daily 10, 5 and 70 mg/kg respectively; for effect on mitochondrial ATP generation capacity in various tissues: α-LA 5 mg/kg, α-Toc 70 mg/kg daily
# [7] = 0 h post-dosing (unpretreated control)
# [8] = X/XO challenge, 16 h post-dosing
# [9] = MENADIONE 12.5 μM for 4 h, drug 6.25 μM for 16 h
# [10] = NON-MENADIONE, 6.25 μM for 16 h
smiles,measurement,setting,value
"COc1cc2c(c(OC)c1OC)-c1c(cc3c(c1OC)OCO3)CC(C)C(C)C2 (racemic) [(±) Sch B, (±) Schisandrin B]",Hsp 25 Level,Hsp25; [7],1413 ± 76 AU
same,Hsp 25 Level,Hsp25; 8 h post-dosing,1512 ± 39 AU
same,Hsp 25 Level,Hsp25; 16 h post-dosing,1611 ± 93 AU
same,Hsp 25 Level,Hsp25; 24 h post-dosing,1728 ± 101 AU
same,"Hsp 25 Level, percent increase vs unpretreated control (0 h)",Hsp25; 24 h post-dosing,(24%)
same,Hsp 25 Level,Hsp25; 48 h post-dosing,1332 ± 77 AU
same,GSH Level,"H9c2 cells [1]; NON-X/XO, 0 h post-dosing (unpretreated control)",38.3 ± 1.16 nmol/mg protein
same,GSH Level,"H9c2 cells [1]; NON-X/XO, 4 h post-dosing",44.1 ± 3.60 nmol/mg protein
same,GSH Level,"H9c2 cells [1]; NON-X/XO, 8 h post-dosing",46.2 ± 1.90 nmol/mg protein
same,GSH Level,"H9c2 cells [1]; NON-X/XO, 16 h post-dosing",85.8 ± 2.57 nmol/mg protein
same,"GSH Level, percent increase vs unpretreated control (0 h)","H9c2 cells [1]; NON-X/XO, 16 h post-dosing",(124%)
same,GSH Level,"H9c2 cells [1]; NON-X/XO, 24 h post-dosing",76.6 ± 0.88 nmol/mg protein
same,GSH Level,"H9c2 cells [1]; NON-X/XO, 48 h post-dosing",58.8 ± 6.54 nmol/mg protein
same,GSH Level,"H9c2 cells [1]; X/XO challenge, 0 h post-dosing (unpretreated control)",14.5 ± 1.06 nmol/mg protein
same,GSH Level,"H9c2 cells [1]; X/XO challenge, 4 h post-dosing",15.8 ± 0.49 nmol/mg protein
same,GSH Level,"H9c2 cells [1]; X/XO challenge, 8 h post-dosing",16.7 ± 1.32 nmol/mg protein
same,GSH Level,H9c2 cells [1]; [8],22.3 ± 0.15 nmol/mg protein
same,"GSH Level, percent increase vs unpretreated control (0 h)",H9c2 cells [1]; [8],(54%)
same,GSH Level,"H9c2 cells [1]; X/XO challenge, 24 h post-dosing",18.9 ± 0.50 nmol/mg protein
same,GSH Level,"H9c2 cells [1]; X/XO challenge, 48 h post-dosing",14.3 ± 1.04 nmol/mg protein
same,Hsp 70 Level,Hsp70; [7],434 ± 15.5 AU
same,Hsp 70 Level,Hsp70; 8 h post-dosing,389 ± 24.7 AU
same,Hsp 70 Level,Hsp70; 16 h post-dosing,652 ± 23.9 AU
same,Hsp 70 Level,Hsp70; 24 h post-dosing,639 ± 23.4 AU
same,"Hsp 70 Level, percent increase vs unpretreated control (0 h)",Hsp70; 24 h post-dosing,(47%)
same,Hsp 70 Level,Hsp70; 48 h post-dosing,419 ± 15.4 AU
same,GSH Level,H9c2 cells [2]; [9],28.9 ± 0.66 nmol/mg protein
same,"GSH Level, percent increase vs menadione control",H9c2 cells [2]; [9],(56%)
same,GSH Level,H9c2 cells [2]; [10],46.5 ± 2.58 nmol/mg protein
same,"GSH Level, percent increase vs non-menadione control",H9c2 cells [2]; [10],(34%)
same,LDH Leakage,H9c2 cells [3]; [7],33.9 ± 0.93 U/L
same,LDH Leakage,H9c2 cells [3]; 4 h post-dosing,28.7 ± 1.35 U/L
same,LDH Leakage,H9c2 cells [3]; 8 h post-dosing,22.8 ± 0.45 U/L
same,LDH Leakage,H9c2 cells [3]; 16 h post-dosing,15.8 ± 0.91 U/L
same,"LDH Leakage, percent protection vs unpretreated control (0 h)",H9c2 cells [3]; 16 h post-dosing,(65%)
same,LDH Leakage,H9c2 cells [3]; 24 h post-dosing,20.1 ± 0.76 U/L
same,LDH Leakage,H9c2 cells [3]; 48 h post-dosing,29.2 ± 0.57 U/L
same,LDH,H9c2 cells [4]; [9],23.6 ± 0.56 U/ml
same,"LDH, percent protection vs menadione control",H9c2 cells [4]; [9],(43%)
same,LDH,H9c2 cells [4]; [10],14.6 ± 0.67 U/ml
"O=C(O)CCCCC1CCSS1 (stereo not drawn) [α-LA, α-lipoic acid]",GPX,[5]; BRAIN,126 ± 9 percent control
same,GRD,[5]; BRAIN,131 ± 5 percent control
same,GSH,[5]; BRAIN,93 ± 2 percent control
same,GST,[5]; BRAIN,103 ± 3 percent control
same,α-Toc level,[5]; BRAIN,110 ± 6 percent control
same,GPX,[5]; HEART,105 ± 9 percent control
same,GRD,[5]; HEART,144 ± 11 percent control
same,GSH,[5]; HEART,103 ± 4 percent control
same,GST,[5]; HEART,119 ± 6 percent control
same,α-Toc level,[5]; HEART,111 ± 4 percent control
same,GPX,[5]; LIVER,159 ± 10 percent control
same,GRD,[5]; LIVER,143 ± 8 percent control
same,GSH,[5]; LIVER,117 ± 2 percent control
same,GST,[5]; LIVER,112 ± 3 percent control
same,α-Toc level,[5]; LIVER,124 ± 13 percent control
same,GPX,[5]; SKELETAL MUSCLE,117 ± 5 percent control
same,GRD,[5]; SKELETAL MUSCLE,123 ± 12 percent control
same,GSH,[5]; SKELETAL MUSCLE,154 ± 12 percent control
same,GST,[5]; SKELETAL MUSCLE,171 ± 19 percent control
same,α-Toc level,[5]; SKELETAL MUSCLE,147 ± 14 percent control
same,ATP generation,[6]; BRAIN,72 ± 4 percent control
same,ATP generation,[6]; HEART,68 ± 9 percent control
same,ATP generation,[6]; LIVER,77 ± 5 percent control
same,ATP generation,[6]; SKELETAL MUSCLE,101 ± 1 percent control
same,effect on mitochondrial ATP generation capacity in various tissues,[6],decreased
"Cc1c(C)c2c(c(C)c1O)CC[C@@](C)(CCC[C@H](C)CCC[C@H](C)CCCC(C)C)O2 [α-Toc, α-tocopherol]",GPX,[5]; BRAIN,121 ± 12 percent control
same,GRD,[5]; BRAIN,153 ± 10 percent control
same,GSH,[5]; BRAIN,119 ± 6 percent control
same,GST,[5]; BRAIN,121 ± 5 percent control
same,α-Toc level,[5]; BRAIN,139 ± 9 percent control
same,GPX,[5]; HEART,130 ± 10 percent control
same,GRD,[5]; HEART,243 ± 20 percent control
same,GSH,[5]; HEART,152 ± 9 percent control
same,GST,[5]; HEART,159 ± 7 percent control
same,α-Toc level,[5]; HEART,151 ± 5 percent control
same,GPX,[5]; LIVER,169 ± 14 percent control
same,GRD,[5]; LIVER,161 ± 5 percent control
same,GSH,[5]; LIVER,133 ± 11 percent control
same,GST,[5]; LIVER,128 ± 3 percent control
same,α-Toc level,[5]; LIVER,214 ± 31 percent control
same,GPX,[5]; SKELETAL MUSCLE,136 ± 7 percent control
same,GRD,[5]; SKELETAL MUSCLE,149 ± 8 percent control
same,GSH,[5]; SKELETAL MUSCLE,153 ± 6 percent control
same,GST,[5]; SKELETAL MUSCLE,176 ± 13 percent control
same,α-Toc level,[5]; SKELETAL MUSCLE,189 ± 11 percent control
same,ATP generation,[6]; BRAIN,62 ± 8 percent control
same,ATP generation,[6]; HEART,95 ± 12 percent control
same,ATP generation,[6]; LIVER,83 ± 8 percent control
same,ATP generation,[6]; SKELETAL MUSCLE,80 ± 8 percent control
same,effect on mitochondrial ATP generation capacity in various tissues,[6],decreased
